According to patent US12173089B2, “Inhibition of pulmonary fibrosis with nutlin-3A and peptides” (BOARD OF REGENTS, THE UNIVERSITY OF TEXAS SYSTEM, priority 2013, dated 2024):

Experiments:
[1] = test system: FL-fibroblasts; assay: Treatment of FL-fibroblasts with nutlin-3a or CSP-4 (findings stated in the summary); assay type: cell-based; conditions: for miR-34a expression / production of ECM / uPAR expression: FL-fibroblasts
[2] = test system: BLM-treated mice; assay: Ki-67 immunohistochemistry of lung sections of BLM-treated mice; assay type: in vivo; conditions: IV treatment 14 d after BLM, sections seven days later
Description: FIGS. 12A-12C. CSP-4 or nutlin-3a (NTL) inhibits proliferation of FL-fibroblasts. Mice were exposed to BLM for 14 d to induce significant lung fibrosis or to saline (fibrosis controls). 14 d later, mice exposed to BLM were treated with CSP-4 or CP, or nutlin-3a (see FIGS. 10A-10D/11A-11D). (FIG. 12A): Lung sections (d 21 after BLM injury) were subjected to immunohistochemistry (IHC) for Ki-67 to assess proliferation. One representative example is shown (n=9). Fibroblasts were isolated from the lungs of mice exposed to saline, BLM or BLM+nutlin-3a (as described in FIG. 11A) were tested for the changes in expression of col-I, p53 and downstream uPA and PAI-1 proteins by Western blotting (FIG. 12B):, and mRNA by quantitative RT-PCR (FIG. 12C).
Mice exposed to BLM 14 days earlier were treated with CSP-4 or its control (CP) or Nutlin-3a IV (as in Examples IX and X). Seven days later lung sections were obtained and subjected to IHC for Ki-67 to assess cell proliferation (see FIG. 12A). […] Fibroblasts isolated from the lungs of these animals (as described in Example X) were tested for the changes in expression of col-I, p53 and downstream uPA and PAI-1 proteins by Western blotting, and mRNA by quantitative RT-PCR (see FIGS. 12B-12C).

[3] = test system: BLM-treated mice; assay: Established lung fibrosis in BLM-treated mice (CT scanning, lung function, trichrome staining, hydroxyproline, desmosine); assay type: in vivo; conditions: for established lung fibrosis: WT mice, results reported herein and elsewhere
Description: FIGS. 10A-10D. Nutlin-3a (NTL) inhibits lung fibrosis in BLM-treated mice. Mice were exposed to BLM for 14 d to induce lung fibrosis. Saline treated mice were used as fibrosis controls. After 14 d, mice exposed to BLM were injected IV with either vehicle or nutlin-3 a (10 mg/kg body weight) (Zhang F et al. Drug Metab Dispos 39: 15-21, 2011) to determine whether nutlin-3 a inhibited established lung fibrosis. On day 21 after BLM injury, mice underwent CT scanning to assess the extent of fibrosis (FIG. 10A). One representative example is shown (n=9). (FIG. 10B) Lung compliance and resistance were measured in the same mice using the Flexivent system to assess improvement in lung function after nutlin-3 a treatment (n=9). (FIG. 10C) Lung sections were subjected to trichrome staining to assess lung architecture and collagen deposition as an indication of lung fibrosis. (FIG. 10D) Whole lung homogenates were analyzed for total collagen (hydroxyproline) and desmosine content as an independent assessment of changes in ECM.
FIGS. 11A-11D. CSP-4 inhibits established lung fibrosis and improves lung function. Mice were exposed to BLM to induce pulmonary fibrosis. After 14 d, the mice were injected IV with either vehicle or 1.5 mg/kg body weight of CSP-4 or control peptide (“CP”) of scrambled sequence. On d 21 after BLM injury, mice underwent CT scanning examine CSP-4 inhibition of established lung fibrosis (FIG. 11A). One representative example is shown (n=9). (FIG. 11B): Lung volumes were measured in the same mice (n=9) using quantitative CT renditions. (FIG. 11C): Lung sections were subjected to trichrome and H&E staining (not shown) to assess collagen deposition as an indicator of lung fibrosis. (FIG. 11D) Analysis of whole lung homogenates for total hydroxyproline content.
Mice exposed to BLM (or saline in controls) for 14 d to induce lung fibrosis were injected IV with nutlin-3a (10 mg/kg body weight) (Zhang et al, supra) or a vehicle control to determine and the effect on established lung fibrosis was examined. Fibrosis was evaluated by CT scanning and lung function (compliance and resistance) were measured using the Flexivent system. Lung sections were subjected to trichrome staining and H & E staining (the latter not shown) to assess lung architecture and collagen deposition as an indication of fibrosis. Finally, whole lung homogenates were analyzed for total collagen (hydroxyproline) and desmosine content (Bhandary Y P et al, Am J Physiol: Lung Cell Mol Physiol 302:L463-73, 2012; Bhandary Y P et al, Am J Pathol, 183: 131-43 2013) as an independent assessment of the ECM. […] Oral administration of Nutlin-3a 14 days after BLM injury likewise inhibited pulmonary fibrosis in mice.
Mice were exposed to BLM to induce pulmonary fibrosis. After 14 d, the mice were injected IV with either vehicle or 1.5 mg/kg body weight of CSP-4 (SEQ ID NO: 1) or control peptide (scrambled sequence of same amino acids; CP, SEQ ID NO:5) at 1.5 mg/kg body weight or vehicle was injected IV into mice exposed to BLM 14 days earlier. One week later, mice were tested by CT scanning to evaluate lung fibrosis. Lung volume was measured in the same mice using quantitative CT renditions.

[4] = test system: FL(IPF)-tissues; assay: Ex vivo treatment of FL-lung tissues from IPF patients; assay type: cell-based, human; conditions: for PAI-1 levels in fibroblasts isolated from IPF explants / Phosphorylation of Akt in fibroblasts from IPF explants / expression of PDGFR-β mRNA and protein in fibroblasts from IPF explants / miR-34a levels in fibroblasts isolated from IPF explants / p53 levels in fibroblasts isolated from IPF explants / uPA expression in fibroblasts isolated from IPF explants / uPAR expression in fibroblasts isolated from IPF explants / ECM synthetic rates of FL-lung explants: nutlin-3a 10 μM or CSP-4 10 nM, 3 to 7 days; for ECM synthetic rates of FL-lung explants: vs untreated, vehicle or CP; for production of ECM of fibroblasts from IPF explants / rate of proliferation of fibroblasts from IPF explants: vs FL-fibroblasts from untreated, vehicle- or CP-treated controls
Description: Freshly dissected FL-lung tissues from IPF patients are treated with nutlin-3a (10 μM) or CSP-4 (10 nM) for 3 to 7 days (see FIG. 13). Lung tissues are homogenized and tested for changes in ECM (hydroxyproline and desmosine). Controls include fibrotic lung (FL)-tissues from IPF patients treated with vehicle or control peptide, CP or naive lung tissues maintained in culture medium. Other controls include NL-tissues resected from histologically “normal” lungs. De-identified patient (“normal” and IPF) lungs that were not suitable for transplantation and donated for medical research are obtained through HAM (Edison, NJ) and the NDRI (Philadelphia, PA) and used for ex vivo studies. Fibroblasts are isolated from these tissues and analyzed for changes in p53, uPA, uPAR and PAI-1 expression, production of ECM and viability. Changes in rate of ECM synthesis are also measured. FL-tissue explants from patients with IPF have elevated synthesis of ECM when compared to expression levels in the slices of NL-tissues from control subjects. […] Phosphorylation of Akt and expression of PDGFR-β mRNA and protein also are reduced in fibroblasts from IPF explants treated with nutlin-3a or CSP-4.

Row | Molecule | miR-34a expression [1] | production of ECM [1] | uPAR expression [1] | apoptosis of fibrotic fibroblasts ([1]; fibroblasts from lungs of patients with IPF and of mice with BLM-induced pulmonary fibrosis) | staining for ki-67 antigens in lung sections [2] | effect on established lung fibrosis (CT, compliance and resistance, trichrome, hydroxyproline, desmosine) ([3]; IV 10 mg/kg body weight 14 d after BLM, read on day 21) | established lung fibrosis ([3]; IV or oral administration beginning 14 d after BLM) | pulmonary fibrosis ([3]; oral administration 14 days after BLM injury) | PAI-1 levels in fibroblasts isolated from IPF explants [4] | Phosphorylation of Akt in fibroblasts from IPF explants [4] | expression of PDGFR-β mRNA and protein in fibroblasts from IPF explants [4] | miR-34a levels in fibroblasts isolated from IPF explants [4] | p53 levels in fibroblasts isolated from IPF explants [4] | uPA expression in fibroblasts isolated from IPF explants [4] | uPAR expression in fibroblasts isolated from IPF explants [4] | ECM synthetic rates of FL-lung explants [4] | production of ECM of fibroblasts from IPF explants [4] | rate of proliferation of fibroblasts from IPF explants [4] | established lung fibrosis ([3]; IP or IV administration beginning 14 d after BLM) | BLM-induced lung fibrosis (CT, lung volume, trichrome and H&E, hydroxyproline) ([3]; IV 1.5 mg/kg body weight 14 d after BLM, read one week later)
1 | COc1ccc(C2=NC(c3ccc(Cl)cc3)C(c3ccc(Cl)cc3)N2C(=O)N2CCNC(=O)C2)c(OC(C)C)c1 (stereo not shown) [nutlin-3a, 4-2-4,5-dihydro-1H-imidazole-1-piperazin-2-one] | restore | inhibits | inhibition | results in apoptosis | significantly reduced | beneficial effect | mitigates | inhibited | elevated levels | reduced | reduced | elevated levels | elevated levels | reduced | reduced | significantly reduced | significantly lower | significantly lower |  | 
2 | FTTFTVT [CSP-4] | restore | inhibits | inhibition |  | significantly reduced |  |  |  | elevated levels | reduced | reduced | elevated levels | elevated levels | reduced | reduced | significantly reduced | significantly lower | significantly lower | mitigates | inhibited
